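Method: 48-hour compound exposure of cells in 96-well plates, five concentrations, linear interpolation of endpoints. Abbreviation: GI50, concentration required for 50% inhibition of growth.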 The source made the active and inactive calls. No stated cut-off is given here; in the data, active = GI50 up to about 1.1 µM and inactive = higher.
Assays:
Assay in all cases: DTP human tumour cell line panel, 48 h
PC-3 = tested on: PC-3
A498 = tested on: A498
NCI-H23 = tested on: NCI-H23
NCI-H226 = tested on: NCI-H226
SK-MEL-28 = tested on: SK-MEL-28
SW-620 = tested on: SW-620
U-251 = tested on: U-251
OVCAR-3 = tested on: OVCAR-3
HOP-62 = tested on: HOP-62
MOLT-4 = tested on: MOLT-4
SF-268 = tested on: SF-268
SK-MEL-2 = tested on: SK-MEL-2
CAKI-1 = tested on: CAKI-1
UACC-257 = tested on: UACC-257
IGROV-1 = tested on: IGROV-1
UO-31 = tested on: UO-31
A549 = tested on: A549
HCT-15 = tested on: HCT-15
SN12C = tested on: SN12C

| SMILES | GI50 (PC-3) | GI50 (A498) | GI50 (NCI-H23) | GI50 (NCI-H226) | GI50 (SK-MEL-28) | GI50 (SW-620) | GI50 (U-251) | GI50 (OVCAR-3) | GI50 (HOP-62) | GI50 (MOLT-4) | GI50 (SF-268) | GI50 (SK-MEL-2) | GI50 (CAKI-1) | GI50 (UACC-257) | GI50 (IGROV-1) | GI50 (UO-31) | GI50 (A549) | GI50 (HCT-15) [µM] | GI50 (SN12C) |
| --- | --- | --- | --- | --- | --- | --- | --- | --- | --- | --- | --- | --- | --- | --- | --- | --- | --- | --- | --- |
| CN(C)CN1CSC(=S)N(CN(C)C)C1 | 16.9 µM (inactive) | > 100 µM (inactive) | > 100 µM (inactive) | > 100 µM (inactive) | > 100 µM (inactive) | > 100 µM (inactive) | 32.3 µM (inactive) | > 100 µM (inactive) | > 100 µM (inactive) | 26.7 µM (inactive) | > 100 µM (inactive) | 33.3 µM (inactive) | > 100 µM (inactive) | > 100 µM (inactive) | 54.3 µM (inactive) | > 100 µM (inactive) | > 100 µM (inactive) | > 100 | > 100 µM (inactive) |
| Nc1ccc(Cc2ccc(/N=C\c3ccc(OCc4cccc(COc5ccc(/C=N\c6ccc(Cc7ccc(N)cc7)cc6)cc5)n4)cc3)cc2)cc1 | > 100 µM (inactive) | 61.5 µM (inactive) | 99.1 µM (inactive) | > 100 µM (inactive) | > 100 µM (inactive) | > 100 µM (inactive) | 41 µM (inactive) | 72.3 µM (inactive) | 37.5 µM (inactive) | > 100 µM (inactive) | 45.2 µM (inactive) | 39.2 µM (inactive) | > 100 µM (inactive) | > 100 µM (inactive) | > 100 µM (inactive) | > 100 µM (inactive) | > 100 µM (inactive) | > 100 | > 100 µM (inactive) |
| CCOC(=O)NC(NNc1ccc([N+](=O)[O-])cc1[N+](=O)[O-])(C(F)(F)F)C(F)(F)F | 24.7 µM (inactive) | 19.7 µM (inactive) | 31.7 µM (inactive) | 36 µM (inactive) | 52.4 µM (inactive) | 40.3 µM (inactive) | 22 µM (inactive) | 31.6 µM (inactive) | 32.9 µM (inactive) | 28.1 µM (inactive) | 43.4 µM (inactive) | 47 µM (inactive) | 33 µM (inactive) | 43.1 µM (inactive) | 54.8 µM (inactive) | 21.9 µM (inactive) | 47 µM (inactive) | 27.9 | 27.7 µM (inactive) |
| COc1ccc(C(=O)NC2=C(Cl)C(=O)c3ccccc3C2=O)cc1 | 1.65 µM (inactive) | 14.6 µM (inactive) | 1.6 µM (inactive) | 1.82 µM (inactive) | 1.15 µM (inactive) | 1.1 µM (active) | 0.977 µM (active) | 1.14 µM (inactive) | 18 µM (inactive) | 0.955 µM (active) | 4.69 µM (inactive) | 1.02 µM (active) | 2.3 µM (inactive) | 1.71 µM (inactive) | 2.52 µM (inactive) | 1.9 µM (inactive) | 4.08 µM (inactive) | 0.482 | 2.77 µM (inactive) |
| CC(=O)O[C@H]1CC[C@@]2(C)C(=CC[C@@H]3[C@@H]2CC[C@]2(C)c4nc(N)c(C#N)cc4C[C@@H]32)C1 | 42.5 µM (inactive) | > 67.6 µM (inactive) | 35 µM (inactive) | > 100 µM (inactive) | 40 µM (inactive) | 43.4 µM (inactive) | 43.9 µM (inactive) | 1.75 µM (inactive) | 8.34 µM (inactive) | 11.7 µM (inactive) | 60.5 µM (inactive) | 35.9 µM (inactive) | > 100 µM (inactive) | 27.2 µM (inactive) | 34.3 µM (inactive) | > 100 µM (inactive) | 25.9 µM (inactive) | 2.94 | 36.9 µM (inactive) |
| COC(=O)c1c(C)cccc1C1CN=NC12Cc1c(C)cccc1C2=O (stereo unspecified) | 37.2 µM (inactive) | 37.8 µM (inactive) | 60 µM (inactive) | > 100 µM (inactive) | > 100 µM (inactive) | > 100 µM (inactive) | > 100 µM (inactive) | 45.2 µM (inactive) | > 100 µM (inactive) | 37.4 µM (inactive) | > 100 µM (inactive) | 99.3 µM (inactive) | > 100 µM (inactive) | 43.4 µM (inactive) | > 100 µM (inactive) | 24 µM (inactive) | 82.6 µM (inactive) | 88.1 | > 100 µM (inactive) |
| CCOS(=O)(=O)c1ccc(-c2c3nc(c(-c4ccc(S(=O)(=O)OCC)cc4)c4ccc([nH]4)c(-c4ccc(S(=O)(=O)OCC)cc4)c4nc(c(-c5ccc(S(=O)(=O)OCC)cc5)c5ccc2[nH]5)C=C4)C=C3)cc1 | > 31.6 µM (inactive) | > 31.6 µM (inactive) | > 31.6 µM (inactive) | 18.3 µM (inactive) | > 10 µM (inactive) | > 31.6 µM (inactive) | > 31.6 µM (inactive) | > 10 µM (inactive) | > 10 µM (inactive) | > 31.6 µM (inactive) | > 31.6 µM (inactive) | > 31.6 µM (inactive) | > 31.6 µM (inactive) | > 31.6 µM (inactive) | > 100 µM (inactive) | 24.8 µM (inactive) | > 31.6 µM (inactive) | > 31.6 | > 31.6 µM (inactive) |
| CC(=O)Nn1c(Cc2ccc(Cl)cc2)nn(C)c1=O | > 100 µM (inactive) | > 100 µM (inactive) | > 100 µM (inactive) | > 100 µM (inactive) | > 100 µM (inactive) | > 100 µM (inactive) | > 100 µM (inactive) | > 100 µM (inactive) | > 100 µM (inactive) | > 100 µM (inactive) | > 100 µM (inactive) | > 100 µM (inactive) | > 100 µM (inactive) | > 100 µM (inactive) | > 100 µM (inactive) | > 100 µM (inactive) | > 100 µM (inactive) | > 100 | > 100 µM (inactive) |
| CNC(=O)N(CCC#N)CCN(C(=O)N(C)C)c1ccccc1 | > 100 µM (inactive) | > 100 µM (inactive) | > 100 µM (inactive) | > 100 µM (inactive) | > 100 µM (inactive) | > 100 µM (inactive) | > 100 µM (inactive) | > 100 µM (inactive) | > 100 µM (inactive) | > 100 µM (inactive) | > 100 µM (inactive) | > 100 µM (inactive) | > 100 µM (inactive) | > 100 µM (inactive) | > 100 µM (inactive) | > 100 µM (inactive) | > 100 µM (inactive) | > 100 | > 100 µM (inactive) |
| Cc1ncc([N+](=O)[O-])n1CCNC(=O)CCCn1ccnc1[N+](=O)[O-] | > 100 µM (inactive) | > 100 µM (inactive) | > 100 µM (inactive) | > 100 µM (inactive) | > 100 µM (inactive) | > 100 µM (inactive) | > 100 µM (inactive) | > 100 µM (inactive) | > 100 µM (inactive) | > 100 µM (inactive) | > 100 µM (inactive) | > 100 µM (inactive) | > 100 µM (inactive) | > 100 µM (inactive) | > 100 µM (inactive) | > 100 µM (inactive) | > 100 µM (inactive) | > 100 | > 100 µM (inactive) |
| c1ccc([P+](CCCCCCCC[P+](c2ccccc2)(c2ccccc2)c2ccccc2)(c2ccccc2)c2ccccc2)cc1 | 1.19 µM (inactive) | > 31.8 µM (inactive) | 2.16 µM (inactive) | 3.61 µM (inactive) | 16.9 µM (inactive) | 6.81 µM (inactive) | 0.22 µM (active) | 3.83 µM (inactive) | 3.64 µM (inactive) | 10.2 µM (inactive) | 3.5 µM (inactive) | 5.69 µM (inactive) | > 100 µM (inactive) | 0.92 µM (active) | 2.4 µM (inactive) | > 100 µM (inactive) | 5.73 µM (inactive) | > 100 | 3.73 µM (inactive) |
| COc1ccccc1-c1cc(O)c2cccnc2n1 | 40.2 µM (inactive) | 54.2 µM (inactive) | 35.2 µM (inactive) | 49.7 µM (inactive) | 82 µM (inactive) | 30.1 µM (inactive) | 40.3 µM (inactive) | 36.5 µM (inactive) | > 100 µM (inactive) | 35.2 µM (inactive) | 72.4 µM (inactive) | 36.5 µM (inactive) | 29.4 µM (inactive) | 37.8 µM (inactive) | 22.5 µM (inactive) | 70.3 µM (inactive) | 55 µM (inactive) | 23.7 | 50.2 µM (inactive) |
| COc1cc2c3c(n(C)c(=O)c2cc1OC)-c1cc2c(cc1C3=O)OCO2 | > 70 µM (inactive) | 46.2 µM (inactive) | 5.01 µM (inactive) | > 72.8 µM (inactive) | > 66.1 µM (inactive) | 10.2 µM (inactive) | 9.38 µM (inactive) | 53.5 µM (inactive) | 1.87 µM (inactive) | 0.44 µM (active) | 10.7 µM (inactive) | > 42 µM (inactive) | 4.98 µM (inactive) | > 83.9 µM (inactive) | 2.47 µM (inactive) | 1.63 µM (inactive) | 55.1 µM (inactive) | > 96.2 | 38.6 µM (inactive) |
| CN1C/C(=C\c2cccs2)C2=NN(C)C(c3cccs3)C2C1 (stereo unspecified) | 19 µM (inactive) | 46.7 µM (inactive) | > 100 µM (inactive) | > 100 µM (inactive) | > 100 µM (inactive) | > 100 µM (inactive) | 22.8 µM (inactive) | 77.8 µM (inactive) | > 100 µM (inactive) | 28.8 µM (inactive) | > 100 µM (inactive) | 24 µM (inactive) | > 100 µM (inactive) | > 100 µM (inactive) | 32.4 µM (inactive) | 75.7 µM (inactive) | 89.3 µM (inactive) | > 100 | 95.7 µM (inactive) |
